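Cultured in 96-well plates, cells were exposed to test compound for 48 hours across five concentrations. Definition used: TGI = concentration required for complete inhibition of growth.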 *1 amine or outer side, *2 acyl side, *3 side chain or, on linkers, in order; H or OH if unused. Where a SMILES comes first, the peptide text is derived from it. [ ]: non-standard residue; d: D form. X32 = C[C@H](N[*:1])C(=O)C(C)(C)C(=O)[*:2]; Hmpa(2S,3S) = CC[C@H](C)[C@H](O)C(=O)O; NMeY = CN[C@@H](Cc1ccc(O)cc1)C(=O)O; NMeL = CN[C@@H](CC(C)C)C(=O)O; NMeV = CN[C@H](C(=O)O)C(C)C; βAla = NCCC(=O)O

Among the test systems are OVCAR-4 ovarian; NCI-H226 lung; MOLT-4 leukemia; MALME-3M melanoma; MCF7 breast; HCT-15 colon; OVCAR-3 ovarian; TK-10 renal; RXF 393 renal; SR leukemia; HCT-116 colon; UACC-62 melanoma; SK-MEL-2 melanoma; NCI/ADR-RES ovarian; MDA-MB-435; PC-3 prostate; SK-MEL-28 melanoma; K-562 leukemia; IGROV1 ovarian.
Holding throughout (assay): DTP human tumour cell line panel, 48 h

For the molecule `CC[C@H](C)[C@@H]1OC(=O)CCNC(=O)[C@@H](C)NC(=O)C(C)(C)C(=O)[C@H](C)NC(=O)[C@H](Cc2ccc(OC)cc2)N(C)C(=O)[C@H](C(C)C)N(C)C(=O)CNC(=O)[C@H](CC(C)C)N(C)C(=O)CNC1=O` (cyclo(G[NMeL]G[NMeV][NMeY](Me)[X32][dA][βAla][Hmpa(2S,3S)])), the TGI – broadly, the concentration giving total growth inhibition – with OVCAR-4 ovarian is 3.51 µM; in the assay on NCI-H226 lung, greater than 38.2 µM; in the assay with MOLT-4 leukemia, greater than 26.9 µM; in the assay on MALME-3M melanoma it was 10.3 µM; with MCF7 breast, greater than 50 µM; in the assay on HCT-15 colon, greater than 50 µM. The TGI is 14.3 µM in the assay with OVCAR-3 ovarian; 8 µM with TK-10 renal; 2 µM in the assay with RXF 393 renal; greater than 25.9 µM in the assay on SR leukemia; greater than 27.8 µM in the assay with HCT-116 colon; greater than 50 µM with UACC-62 melanoma. The concentration for total growth inhibition (TGI) with SK-MEL-2 melanoma was 6.48 µM; in the assay on NCI/ADR-RES ovarian, greater than 50 µM; with MDA-MB-435, greater than 42.7 µM; in the assay on PC-3 prostate, greater than 31.5 µM; in the assay on SK-MEL-28 melanoma, greater than 36.3 µM; in the assay on K-562 leukemia it was greater than 24.5 µM. In addition, in the assay on IGROV1 ovarian, the concentration for total growth inhibition (TGI) was 4.16 µM.

Values taken from PubChem BioAssay (NCI).
